In patent US20220000117A1, “METHOD FOR CONTROLLING DISEASES IN SMALL GRAIN CEREALS, SEED OF SMALL GRAIN CEREALS, AND METHOD FOR SUPPRESSING LODGING DAMAGE IN SMALL GRAIN CEREALS” (KUMIAI CHEMICAL INDUSTRY CO., LTD., priority 2019, published 2022):

System: powdery mildew
Assay: Test Example 9: control test of wheat powdery mildew, cup in greenhouse, inoculated, Norin No. 61 (Tables 10 to 14)
Format: in vivo, Blumeria graminis
Set-up: key to Degree of Disease Occurrence: Σ(index×leaves)/(4×leaves investigated)×100; 0 = no disease, 100 = max
Method: Degree of Disease Occurrence=Σ(Index×Number of Leaves of Index)/(4×Number of Investigated Leaves)×100 (1)
Seed of wheat (variety: Norin No. 61) was used, and 100 ml of suspension waters each containing the compound shown in Table 10 at an amount shown in […] (synthesis was performed in accordance with a known method, a solution dissolved in DMSO or formulated 10% wettable powder was used) were prepared. The seed having a mass of 1 kg of wheat was mixed into the suspension water with a chemical treated amount shown in Table 10, and air-dried, and then, 5 seeds were sown in a plastic cup having a diameter of 6 cm containing river sand and managed in a greenhouse. In Comparative Examples, 20 ml of the suspension water of an active ingredient, which had been adjusted to have a concentration shown in Table 10, was sprayed in a frame of 45 cm×45 cm in which a pot of wheat seedlings was placed (corresponding to 1000 L/ha) 14 days after seeding. On day 14 after seeding, conidiospores of powdery mildew were sifted over leaves of wheat seedlings and inoculated onto the leaves (after the sprayed liquid was dried in the case of Comparative Examples), a lesion area ratio of powdery mildew in a first leaf was investigated 21 days after seeding according to the criteria in Table 1, and the degree of disease occurrence was calculated by the above calculation formula (1).

[1] = Table 11 run (different day), Foliage Treatment, spray 10 ppm (10 g/ha)
[2] = Table 11 run (different day), Foliage Treatment, spray 50 ppm (50 g/ha)
[3] = Table 11 run (different day), Seed Treatment 0.1 g/Seed 1 kg (10 g/ha)
[4] = Table 11 run (different day), Seed Treatment 0.5 g/Seed 1 kg (50 g/ha)
[5] = Table 13 run (different day), Foliage Treatment, spray 10 ppm (10 g/ha)
[6] = Table 13 run (different day), Foliage Treatment, spray 50 ppm (50 g/ha)
[7] = Table 13 run (different day), Seed Treatment 0.1 g/Seed 1 kg (10 g/ha)
[8] = Table 13 run (different day), Seed Treatment 0.5 g/Seed 1 kg (50 g/ha)
[9] = Table 10 run, Foliage Treatment, spray 5 ppm (5 g/ha) day 14, first leaf, 21 days after seeding
[10] = Table 10 run, Foliage Treatment, spray 10 ppm (10 g/ha) day 14, first leaf, 21 days after seeding
[11] = Table 10 run, Seed Treatment 0.05 g/Seed 1 kg (5 g/ha), first leaf, 21 days after seeding
[12] = Table 10 run, Seed Treatment 0.1 g/Seed 1 kg (10 g/ha), first leaf, 21 days after seeding
[13] = Table 13 run (different day), Foliage Treatment, spray 5 ppm (5 g/ha)
[14] = Table 13 run (different day), Seed Treatment 0.05 g/Seed 1 kg (5 g/ha)

Compound | Degree of Disease Occurrence [2] | Disease Leaf Rate (%) [2] | Degree of Disease Occurrence [4] | Disease Leaf Rate (%) [4] | Degree of Disease Occurrence [5] | Disease Leaf Rate (%) [5] | Degree of Disease Occurrence [6] | Disease Leaf Rate (%) [6] | Degree of Disease Occurrence [7] | Disease Leaf Rate (%) [7] | Degree of Disease Occurrence [8] | Disease Leaf Rate (%) [8] | also measured
CC(=O)OCc1snc(Cl)c1Cl [Compound (4)] | 90.6 | 100% | 57.2 | 100% | 81.7 | 100.0% | 71.5 | 100.0% | 47.9 | 100.0% | 49.1 | 100.0% | Degree of Disease Occurrence [1]: 100.0; Disease Leaf Rate (%) [1]: 100%; Degree of Disease Occurrence [3]: 74.1; Disease Leaf Rate (%) [3]: 100%
NC(=O)c1snc(Cl)c1Cl [Compound (9)] |  |  |  |  |  |  |  |  |  |  |  |  | Degree of Disease Occurrence [9]: 57.3; Disease Leaf Rate (%) [9]: 100.0%; Degree of Disease Occurrence [10]: 63.5; Disease Leaf Rate (%) [10]: 100.0%; Degree of Disease Occurrence [11]: 38.3; Disease Leaf Rate (%) [11]: 96.9%; Degree of Disease Occurrence [12]: 33.0; Disease Leaf Rate (%) [12]: 83.9%
O=C(OCc1snc(Cl)c1Cl)c1ccccc1 [Compound (5)] | 90.5 | 100% | 57.0 | 95% | 62.4 | 100.0% | 86.7 | 100.0% | 58.1 | 100.0% | 40.6 | 95.0% | Degree of Disease Occurrence [13]: 100.0; Disease Leaf Rate (%) [13]: 100.0%; Degree of Disease Occurrence [14]: 66.1; Disease Leaf Rate (%) [14]: 100.0%
